Columns and labels:
Experiment in all cases: relative viability (nuclei count vs DMSO), 5 days (fraction); higher = more cells survive
[1] = compound: C1COCCN1C2=NC(=NC3=C2OC4=C3C=CC=N4)C5=CC(=CC=C5)NC(=O)C6=CN=C(C=C6)N + NC(=O)Nc1cc(-c2cccc(F)c2)sc1C(=O)N[C@H]1CCCNC1 [AZD7762] (partner 0.2 µM)
Method in brief: (§1)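 Lung cancer cell lines were pin-tool dosed in 1536-well plates on the day after seeding, with either a lone drug or a fixed anchor-drug dose plus five library-drug doses (not always all listed) in √10 steps. Nuclei were counted on 4× images after 5 days. Relative viability is the ratio of treated-well to vehicle-well nuclei counts, with each value a median of duplicate plates.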

[2] = compound: C1COCCN1C2=NC(=NC3=C2OC4=C3C=CC=N4)C5=CC(=CC=C5)NC(=O)C6=CN=C(C=C6)N + O=C(CCCCCCC(=O)Nc1ccccc1)NO [Vorinostat] (partner 1 µM)
Method in brief: as §1

SGI-1776 + Vorinostat = compound: CN1CCC(CNc2ccc3ncc(-c4cccc(OC(F)(F)F)c4)n3n2)CC1 [SGI-1776] + O=C(CCCCCCC(=O)Nc1ccccc1)NO [Vorinostat] (partner 1 µM)
Method in brief: as §1

[3] = compound: C1COCCN1C2=NC(=NC3=C2OC4=C3C=CC=N4)C5=CC(=CC=C5)NC(=O)C6=CN=C(C=C6)N + O=C(c1cc(Cc2n[nH]c(=O)c3ccccc23)ccc1F)N1CCN(C(=O)C2CC2)CC1 [Olaparib] (partner 8 µM)
Method in brief: as §1

Cell Line | relative viability ([1]; first compound 0.02 µM) | relative viability ([1]; first compound 0.06325 µM) | relative viability ([1]; first compound 0.2 µM) | relative viability ([1]; first compound 0.6325 µM) | relative viability ([1]; first compound 2 µM) | relative viability ([2]; first compound 0.02 µM) | relative viability ([2]; first compound 0.06325 µM) | relative viability ([2]; first compound 0.2 µM) | relative viability ([2]; first compound 0.6325 µM) | relative viability ([2]; first compound 2 µM) | relative viability (SGI-1776 + Vorinostat; first compound 0.08 µM) | relative viability (SGI-1776 + Vorinostat; first compound 0.8 µM) | relative viability (SGI-1776 + Vorinostat; first compound 2.53 µM) | relative viability (SGI-1776 + Vorinostat; first compound 8 µM) | relative viability ([3]; first compound 0.02 µM) | relative viability ([3]; first compound 0.06325 µM) | relative viability ([3]; first compound 0.2 µM) | relative viability ([3]; first compound 0.6325 µM) | relative viability ([3]; first compound 2 µM)
NCI-H1915 | 0.72 | 0.767 | 0.716 | 0.726 | 0.664 | 0.539 | 0.572 | 0.536 | 0.536 | 0.397 | 0.51 | 0.555 | 0.492 | 0.449 | 0.215 | 0.273 | 0.245 | 0.266 | 0.269
NCI-H647 | 0.481 | 0.627 | 0.373 | 0.527 | 0.359 | 0.625 | 0.757 | 0.502 | 0.433 | 0.29 | 0.539 | 0.61 | 0.604 | 0.322 | 0.684 | 0.69 | 0.573 | 0.606 | 0.256
NCI-H441 | 0.96 | 1.17 | 1.1 | 1.09 | 0.738 | 0.759 | 0.918 | 0.798 | 0.701 | 0.377 | 0.929 | 0.761 | 0.867 | 0.658 | 0.451 | 0.553 | 0.686 | 0.536 | 0.414
PC-14 | 0.349 | 0.352 | 0.242 | 0.332 | 0.23 | 0.784 | 0.816 | 0.648 | 0.603 | 0.362 | 0.798 | 0.784 | 0.771 | 0.0624 | 0.304 | 0.284 | 0.249 | 0.248 | 0.186
NCI-H1944 | 0.568 | 0.436 | 0.398 | 0.389 | 0.381 | 0.533 | 0.65 | 0.5 | 0.485 | 0.477 | 0.584 | 0.646 | 0.553 | 0.477 | 0.424 | 0.41 | 0.42 | 0.413 | 0.512
NCI-H2085 | 0.934 | 0.969 | 0.874 | 0.646 | 0.598 | 0.736 | 0.802 | 0.75 | 0.704 | 0.706 | 0.841 | 0.865 | 0.763 | 0.753 | 0.735 | 0.793 | 0.747 | 0.68 | 0.547
NCI-H2347 | 0.768 | 0.787 | 0.683 | 0.666 | 0.618 | 0.582 | 0.494 | 0.645 | 0.528 | 0.559 | 0.598 | 0.622 | 0.588 | 0.496 | 0.532 | 0.625 | 0.571 | 0.517 | 0.532
ABC-1 | 0.793 | 0.638 | 0.608 | 1.03 | 0.684 | 1.1 | 0.976 | 0.81 | 1.22 | 0.789 | 1.02 | 1.14 | 1.01 | 0.702 | 0.767 | 0.945 | 0.726 | 1.04 | 0.685

— the supplement of paper PMC10307832
